Measurements from patent US20150017673A1, “COMPOSITIONS AND METHODS FOR DRUG-SENSITIZATION OR INHIBITION OF A CANCER CELL” (priority 2012, published 2015).
Like-named read-outs stand apart in the source and are kept apart here.

How the values were obtained:
lymphoma cell line G3 = test: Cell growth assay (resazurin fluorescence) on CHOP-resistant G3 NHL cells; assay type: cell-based, human; conditions: for Magnitude of potentiation in combination with doxorubicin: G3, lymphoma B cells
Experimental: (§1) Compositions were tested on CHOP-resistant G3 NHL cells that had been cultivated in RPMI medium for five days. Prior to assay, the cells were counted by haemocytometer and cell concentration standardized to 625,000 cells/ml. Test drugs were solubilized in 100% DMSO and then diluted to final assay concentration with 0.1M phosphate buffered saline (PBS) and a final DMSO concentration of 0.5%. Cells were added to assay plates containing the test drugs (rifabutin+148 ng/ml, 74 ng/ml, 37 ng/ml, or 0 ng/ml doxorubicin) and allowed to incubate for 96 hours at 37° C. and 5% CO2. The metabolic dye rezasurin was added to the wells of the assay plate at a final concentration of 20 μg/ml and the plates were incubated for an additional 24 hours. The plates were then read in a BMG Polarstar plate reader at wavelength (573-605) and the data plotted as OD versus increasing dilutions (i.e. decreasing total amounts) of rifabutin derivative concentration.

[1] = system: multi-drug-resistant breast cancer cell line MDA-MB-231; test: Cell growth assay on MDA-MB-231 cells; assay type: cell-based; conditions: for Magnitude of potentiation in combination with doxorubicin: MDA-MB-231, breast carcinoma; for IC50: Homo sapiens
Experimental: as §1
(§2) In these experiments, the following cell lines were used: CHOP-resistant NHL cell line G3, CHOP-sensitive NHL cell line CRL2631, the multi-drug resistant sarcoma cell line MES-SA-Dx5; multi-drug-resistant breast cancer cell line MDA-MB-231, multi-drug resistant ovarian carcinoma cell line SK-OV3, multi-drug resistant ovarian cancer cell line NCI/ADR-RES, drug-sensitive ovarian cancer cell line OVCAR-5, and multi-drug resistant ovarian cancer cell line OVCAR-3.
(§3) Additional cell lines used include: ovarian cancer OVCAR-8, T lymphoblastoid leukemia MOLT-4, dexamethasone-resistant multiple myeloma MM.1R, myeloid leukemia cells HL-60, osteosarcoma cells U-2 OS, and myeloma RPMI 8226.

[2] = system: multi-drug resistant ovarian carcinoma cell line SK-OV3; test: Cell growth assay on SK-OV3 cells; assay type: cell-based, human; conditions: SK-OV3, ovarian carcinoma
Experimental: as §1
as §2, with “OVCAR-3. […]” for “OVCAR-3.”

[3] = system: multi-drug resistant ovarian cancer cell line OVCAR-3; test: Cell growth assay on OVCAR-3 cells; assay type: cell-based; conditions: OVCAR-3, ovarian carcinoma
Experimental: as §1
as §2, with “OVCAR-3. […]” for “OVCAR-3.”

ROS in G3 lymphoma cells = test: Intracellular ROS (CellROX, flow cytometry) in G3 cells; assay type: cell-based, human; conditions: 10 uM, FIG. 40
Experimental: Cells were then stained with the fluorescent ROS indicator, CellROX, and subjected to flow cytometry to quantitate total intracellular ROS.
The electron transport chain (ETC) is known to be a primary generator of ROS in the cell. Most of the ROS is generated by Complexes I and III of the ETC Inhibition of Complex I results in electrons piling up and leaking to react with oxygen to produce ROS.
All samples were analyzed at the same time in flow cytometry.

[4] = system: multi-drug resistant ovarian cancer cell line NCI/ADR-RES; test: Cell growth assay on NCI/ADR-RES cells; assay type: cell-based; conditions: NCI/ADR-RES, ovarian carcinoma
Experimental: as §1, §2, §3

[5] = analog alone, lymphoma cell line G3, read-out: IC50
[6] = with 1 μM doxorubicin, lymphoma cell line G3, read-out: IC50 (μM) with doxorubicin (1 μM)

4-deoxy-3,4[2-spiro-[1-(n-propyloxycarbonyl)-piperidin-4-yl]]- (1H)-imidazo-(2,5-dihydro)rifamycin S [RTI-78]
IC50 (lymphoma cell line G3; [5]): 58 µM
Fold increase in potency over DOX alone (lymphoma cell line G3; lymphoma cell line G3): 29.5 fold
IC50 (lymphoma cell line G3; [6]): 0.08 µM

11-deoxy-11-imino-4-deoxy-3,4[2-spiro-[1- (ethylaminocarbonyl)-piperidin-4-yl]]-(1H)-imidazo-(2,5- dihydro)rifamycin S [RTI-82]
Magnitude of potentiation in combination with doxorubicin [1]: +++ (potentiation greater than 5 fold increase)
IC50 (lymphoma cell line G3; [5]): > 64 µM
Fold increase in potency over DOX alone (lymphoma cell line G3; lymphoma cell line G3): 0.7 fold
IC50 (lymphoma cell line G3; [6]): 3.5 µM

11-deoxy-11-imino-4-deoxy-3,4[2-spiro-[1-(2-methoxyethyl)- piperidin-4-yl]]-(1H)-imidazo-(2,5-dihydro)rifamycin S [RTI-51]
Magnitude of potentiation in combination with doxorubicin [2]: + (potentiation between 1.2 to 2.0 fold increase)
Magnitude of potentiation in combination with doxorubicin [3]: + (potentiation between 1.2 to 2.0 fold increase)
IC50 (lymphoma cell line G3; [5]): > 64 µM
Fold increase in potency over DOX alone (lymphoma cell line G3; lymphoma cell line G3): 0.7 fold
IC50 (lymphoma cell line G3; [6]): 3.3 µM

O=c1[nH]c2ccccc2n1C1CCN(Cc2ccc(-c3nc4cc5[nH]cnc5cc4nc3-c3ccccc3)cc2)CC1 [Akt Inhibitor VIII]
CHOP resistance (lymphoma cell line G3; G3 cells, varying amounts of Akt Inhibitor VIII): dose-dependent reversal of CHOP resistance

CC(=O)OCOC(=O)CN(CC(=O)OCOC(C)=O)c1ccccc1OCCOc1ccccc1N(CC(=O)OCOC(C)=O)CC(=O)OCOC(C)=O [BAPTA-AM]
ROS levels (ROS in G3 lymphoma cells): induced ROS

Nc1ccn([C@@H]2O[C@H](CO)[C@@H](O)C2(F)F)c(=O)n1 [Gemcitabine, gemcitabine]
IC50 ([1]; therapeutic drug alone, MDA-MB-231, read-out: IC50): > 32 µM
IC50 ([1]; therapeutic drug with Rifabutin, MDA-MB-231, read-out: IC50 (μM) with Rifabutin): 4.83 µM
Fold increase in potency ([1]; with vs without Rifabutin, MDA-MB-231): >6.6 fold

COC1C=COC2(C)Oc3c(C)c(O)c4c(c3C2=N)C2=NC3(CCN(CCN5CCOCC5)CC3)NC2=C(NC(=O)C(C)=CC=CC(C)C(O)C(C)C(O)C(C)C(OC(C)=O)C1C)C4=O (stereo not shown) [RTI-53, 11-deoxy-11-imino-4-deoxy-3,4[2-spiro-[1-(2-morpholinoethyl)-piperidin-4-yl]]-(1H)-imidazo-(2,5-dihydro)rifamycin S]
Magnitude of potentiation in combination with doxorubicin [2]: + (potentiation between 1.2 to 2.0 fold increase)
Magnitude of potentiation in combination with doxorubicin [3]: + (potentiation between 1.2 to 2.0 fold increase)
IC50 (lymphoma cell line G3; [5]): > 64 µM
Fold increase in potency over DOX alone (lymphoma cell line G3; lymphoma cell line G3): 0.2 fold
IC50 (lymphoma cell line G3; [6]): 11.8 µM

COC1C=COC2(C)Oc3c(C)c(O)c4c(c3C2=O)C2=NC3(CCN(C(=O)NCC(C)C)CC3)NC2=C(NC(=O)C(C)=CC=CC(C)C(O)C(C)C(O)C(C)C(OC(C)=O)C1C)C4=O (stereo not shown) [RTI-102, 4-deoxy-3,4[2-spiro-[1-(isobutylaminocarbonyl)-piperidin-4-yl]]-(1H)-imidazo-(2,5-dihydro)rifamycin S]
Magnitude of potentiation in combination with doxorubicin [2]: +++ (potentiation greater than 5 fold increase)
Magnitude of potentiation in combination with doxorubicin (lymphoma cell line G3): ++ (potentiation between 2.1 to 5 fold increase)
IC50 (lymphoma cell line G3; [5]): > 64 µM
Fold increase in potency over DOX alone (lymphoma cell line G3; lymphoma cell line G3): 2.5 fold
IC50 (lymphoma cell line G3; [6]): 0.95 µM

COC1C=COC2(C)Oc3c(C)c(O)c4c(c3C2O)C2=NC3(CCN(CC(C)C)CC3)NC2=C(NC(=O)C(C)=CC=CC(C)C(O)C(C)C(O)C(C)C(OC(C)=O)C1C)C4=O (stereo not shown) [RTI-174, 11-deoxy-11-hydroxy-4-deoxy-3,4[2-spiro-[1-(2-methylpropyl)-piperidin-4-yl]]-(1H)-imidazo-(2,5-dihydro)rifamycin S]
Magnitude of potentiation in combination with doxorubicin [4]: + (potentiation between 1.2 to 2.0 fold increase)
Magnitude of potentiation in combination with doxorubicin [2]: + (potentiation between 1.2 to 2.0 fold increase)
Magnitude of potentiation in combination with doxorubicin [3]: + (potentiation between 1.2 to 2.0 fold increase)
Magnitude of potentiation in combination with doxorubicin (lymphoma cell line G3): ++ (potentiation between 2.1 to 5 fold increase)
IC50 (lymphoma cell line G3; [5]): 51 µM
Fold increase in potency over DOX alone (lymphoma cell line G3; lymphoma cell line G3): 3.7 fold
IC50 (lymphoma cell line G3; [6]): 0.64 µM

COC1C=COC2(C)Oc3c(C)c(O)c4c(c3C2N)C2=NC3(CCN(CC(C)C)CC3)NC2=C(NC(=O)C(C)=CC=CC(C)C(O)C(C)C(O)C(C)C(OC(C)=O)C1C)C4=O (stereo not shown) [RTI-181, 11-deoxy-11-amino-4-deoxy-3,4[2-spiro-[1-(2-methylpropyl)-piperidin-4-yl]]-(1H)-imidazo-(2,5-dihydro)rifamycin S]
Magnitude of potentiation in combination with doxorubicin [2]: +++ (potentiation greater than 5 fold increase)
Magnitude of potentiation in combination with doxorubicin [3]: + (potentiation between 1.2 to 2.0 fold increase)
Magnitude of potentiation in combination with doxorubicin (lymphoma cell line G3): +++ (potentiation greater than 5 fold increase)
IC50 (lymphoma cell line G3; [5]): 52 µM
Fold increase in potency over DOX alone (lymphoma cell line G3; lymphoma cell line G3): 5.5 fold
IC50 (lymphoma cell line G3; [6]): 0.43 µM

COC1C=COC2(C)Oc3c(C)c(O)c4c(c3C2=N)C2=NC3(CCN(C(=O)NCC(C)C)CC3)NC2=C(NC(=O)C(C)=CC=CC(C)C(O)C(C)C(O)C(C)C(OC(C)=O)C1C)C4=O (stereo not shown) [RTI-182, 11-deoxy-11-imino-4-deoxy-3,4[2-spiro-[1-(isobutylaminocarbonyl)-piperidin-4-yl]]-(1H)-imidazo-(2,5-dihydro)rifamycin S]
Magnitude of potentiation in combination with doxorubicin [1]: ++ (potentiation between 2.1 to 5 fold increase)
Magnitude of potentiation in combination with doxorubicin [2]: ++ (potentiation between 2.1 to 5 fold increase)
Magnitude of potentiation in combination with doxorubicin [3]: + (potentiation between 1.2 to 2.0 fold increase)
Magnitude of potentiation in combination with doxorubicin (lymphoma cell line G3): + (potentiation between 1.2 to 2.0 fold increase)
IC50 (lymphoma cell line G3; [5]): 62 µM
Fold increase in potency over DOX alone (lymphoma cell line G3; lymphoma cell line G3): 2.0 fold
IC50 (lymphoma cell line G3; [6]): 1.2 µM

COC1C=COC2(C)Oc3c(C)c(O)c4c(c3C2N)C2=NC3(CCN(C(=O)NCC(C)C)CC3)NC2=C(NC(=O)C(C)=CC=CC(C)C(O)C(C)C(O)C(C)C(OC(C)=O)C1C)C4=O (stereo not shown) [RTI-183, 11-deoxy-11-amino-4-deoxy-3,4[2-spiro-[1-(isobutylaminocarbonyl)-piperidin-4-yl]]-(1H)-imidazo-(2,5-dihydro)rifamycin S]
Magnitude of potentiation in combination with doxorubicin [3]: + (potentiation between 1.2 to 2.0 fold increase)
IC50 (lymphoma cell line G3; [5]): > 64 µM
Fold increase in potency over DOX alone (lymphoma cell line G3; lymphoma cell line G3): 0.5 fold
IC50 (lymphoma cell line G3; [6]): 5.19 µM

C=C(C)[C@H]1Cc2c(ccc3c2O[C@@H]2COc4cc(OC)c(OC)cc4[C@@H]2C3=O)O1 [Rotenone, rotenone]
ROS levels (ROS in G3 lymphoma cells): induced ROS

CC[C@]1(O)C[C@@H]2CN(CCc3c([nH]c4ccccc34)[C@@](C(=O)OC)(c3cc4c(cc3OC)N(C)[C@H]3[C@@](O)(C(=O)OC)[C@H](OC(C)=O)[C@]5(CC)C=CCN6CC[C@]43[C@@H]65)C2)C1 [Vinblastine, vinblastine]
IC50 (lymphoma cell line G3; Homo sapiens, therapeutic drug alone, G3, read-out: IC50): 8 µM
IC50 (lymphoma cell line G3; Homo sapiens, therapeutic drug with Rifabutin, G3, read-out: IC50 (μM) with Rifabutin): 1 µM
Fold increase in potency (lymphoma cell line G3; with vs without Rifabutin, G3): 8.0 fold
